According to ChEMBL document CHEMBL3991601, “The target landscape of clinical kinase drugs” (Science, 2017):
The source made the active and inactive calls. Cut-off read from the data, not from the text of the source, for most assays here: actives have a measured Kd and inactives only a lower limit.

Key:
[1] = target: T1, Tyrosine--tRNA ligase, cytoplasmic (Homo sapiens, UniProt P54577)
T1 sequence (P54577 whole entry): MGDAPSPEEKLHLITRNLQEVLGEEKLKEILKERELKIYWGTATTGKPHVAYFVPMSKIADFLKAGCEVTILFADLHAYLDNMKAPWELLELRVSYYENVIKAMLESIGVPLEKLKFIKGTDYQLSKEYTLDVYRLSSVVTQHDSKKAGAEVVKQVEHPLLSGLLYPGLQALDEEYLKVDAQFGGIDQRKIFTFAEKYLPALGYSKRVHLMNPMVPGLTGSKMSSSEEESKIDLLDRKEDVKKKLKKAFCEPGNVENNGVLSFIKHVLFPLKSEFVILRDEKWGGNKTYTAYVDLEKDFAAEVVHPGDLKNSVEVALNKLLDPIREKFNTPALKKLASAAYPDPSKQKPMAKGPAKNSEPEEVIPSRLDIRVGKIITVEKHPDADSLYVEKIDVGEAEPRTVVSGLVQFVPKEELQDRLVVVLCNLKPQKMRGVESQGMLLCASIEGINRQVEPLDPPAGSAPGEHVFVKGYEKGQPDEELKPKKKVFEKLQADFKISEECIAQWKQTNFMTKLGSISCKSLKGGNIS

[2] = target: DNA topoisomerase 2-alpha (Homo sapiens, UniProt P11388)
[3] = target: Protein kinase C beta type (Homo sapiens, UniProt P05771)
[4] = target: High affinity nerve growth factor receptor (Homo sapiens, UniProt P04629)
[5] = target: Protein kinase C theta type (Homo sapiens, UniProt Q04759)
[6] = target: Serine/threonine-protein kinase/endoribonuclease IRE2 (Homo sapiens, UniProt Q76MJ5)
[7] = target: Tyrosine-protein kinase Yes (Homo sapiens, UniProt P07947)
[8] = target: T2, Serine/threonine-protein kinase TBK1 (Homo sapiens, UniProt Q9UHD2)
T2 sequence (Q9UHD2 whole entry): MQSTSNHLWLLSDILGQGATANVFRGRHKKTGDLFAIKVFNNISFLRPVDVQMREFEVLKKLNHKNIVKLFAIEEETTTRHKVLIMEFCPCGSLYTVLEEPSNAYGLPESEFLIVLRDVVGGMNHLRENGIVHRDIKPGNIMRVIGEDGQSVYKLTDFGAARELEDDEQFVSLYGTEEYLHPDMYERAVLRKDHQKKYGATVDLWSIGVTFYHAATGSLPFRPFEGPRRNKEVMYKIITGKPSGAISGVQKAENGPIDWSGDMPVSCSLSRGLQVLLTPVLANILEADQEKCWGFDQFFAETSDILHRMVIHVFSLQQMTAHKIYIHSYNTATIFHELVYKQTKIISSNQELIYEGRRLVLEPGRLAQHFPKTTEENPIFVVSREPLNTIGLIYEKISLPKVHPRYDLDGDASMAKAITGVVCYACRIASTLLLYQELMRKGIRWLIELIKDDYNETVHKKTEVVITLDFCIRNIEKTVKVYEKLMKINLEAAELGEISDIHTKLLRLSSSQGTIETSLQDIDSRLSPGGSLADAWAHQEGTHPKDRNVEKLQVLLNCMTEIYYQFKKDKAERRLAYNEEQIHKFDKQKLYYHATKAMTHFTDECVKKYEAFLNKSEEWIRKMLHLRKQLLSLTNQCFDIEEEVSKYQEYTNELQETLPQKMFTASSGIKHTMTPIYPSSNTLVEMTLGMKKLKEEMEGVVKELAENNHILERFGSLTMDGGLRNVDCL

[9] = target: T3, Calcium/calmodulin-dependent protein kinase type IV (Homo sapiens, UniProt Q16566)
T3 sequence (Q16566 whole entry): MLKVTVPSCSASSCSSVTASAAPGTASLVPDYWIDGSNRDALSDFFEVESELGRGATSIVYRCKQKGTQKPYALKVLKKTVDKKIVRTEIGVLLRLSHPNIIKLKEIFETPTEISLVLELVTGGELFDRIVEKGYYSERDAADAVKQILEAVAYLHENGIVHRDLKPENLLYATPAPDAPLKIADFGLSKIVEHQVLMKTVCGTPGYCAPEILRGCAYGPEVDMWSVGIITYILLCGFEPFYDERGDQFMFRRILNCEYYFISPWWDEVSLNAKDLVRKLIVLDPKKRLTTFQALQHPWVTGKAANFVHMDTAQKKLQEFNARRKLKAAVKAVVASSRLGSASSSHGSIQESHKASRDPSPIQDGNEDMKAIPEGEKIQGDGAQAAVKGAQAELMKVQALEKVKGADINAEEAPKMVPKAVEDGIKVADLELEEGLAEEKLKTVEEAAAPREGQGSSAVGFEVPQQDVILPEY

Measured: Kd
Note: in the data inactive means no Kd found up to 30 µM.

Sequence of Serine/threonine-protein kinase/endoribonuclease IRE2 (Q76MJ5 whole entry): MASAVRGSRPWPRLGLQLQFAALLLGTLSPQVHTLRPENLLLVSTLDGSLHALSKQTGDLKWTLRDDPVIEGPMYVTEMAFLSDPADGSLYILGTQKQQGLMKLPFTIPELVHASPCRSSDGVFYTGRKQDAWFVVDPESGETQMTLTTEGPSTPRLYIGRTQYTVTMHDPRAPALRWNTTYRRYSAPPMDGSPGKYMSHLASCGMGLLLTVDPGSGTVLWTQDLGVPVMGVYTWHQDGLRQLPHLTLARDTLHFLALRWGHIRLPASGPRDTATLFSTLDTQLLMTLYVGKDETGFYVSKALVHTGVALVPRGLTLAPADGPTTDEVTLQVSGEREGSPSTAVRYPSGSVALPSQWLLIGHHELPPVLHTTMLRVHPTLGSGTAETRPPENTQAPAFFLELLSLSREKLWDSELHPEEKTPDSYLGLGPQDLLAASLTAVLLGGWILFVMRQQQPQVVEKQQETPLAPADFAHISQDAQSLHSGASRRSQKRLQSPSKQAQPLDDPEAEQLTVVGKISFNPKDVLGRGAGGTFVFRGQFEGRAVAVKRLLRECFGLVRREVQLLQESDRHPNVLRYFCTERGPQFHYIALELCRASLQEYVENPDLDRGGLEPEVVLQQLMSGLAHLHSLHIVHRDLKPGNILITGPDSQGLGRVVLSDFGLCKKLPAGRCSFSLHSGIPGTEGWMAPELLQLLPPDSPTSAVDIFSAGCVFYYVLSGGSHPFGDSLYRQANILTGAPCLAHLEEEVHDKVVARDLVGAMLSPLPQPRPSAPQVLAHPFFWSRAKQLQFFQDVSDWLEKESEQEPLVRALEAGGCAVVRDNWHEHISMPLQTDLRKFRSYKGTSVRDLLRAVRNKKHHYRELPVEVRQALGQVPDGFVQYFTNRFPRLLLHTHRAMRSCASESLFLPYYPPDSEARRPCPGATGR
Sequence of High affinity nerve growth factor receptor (P04629 whole entry): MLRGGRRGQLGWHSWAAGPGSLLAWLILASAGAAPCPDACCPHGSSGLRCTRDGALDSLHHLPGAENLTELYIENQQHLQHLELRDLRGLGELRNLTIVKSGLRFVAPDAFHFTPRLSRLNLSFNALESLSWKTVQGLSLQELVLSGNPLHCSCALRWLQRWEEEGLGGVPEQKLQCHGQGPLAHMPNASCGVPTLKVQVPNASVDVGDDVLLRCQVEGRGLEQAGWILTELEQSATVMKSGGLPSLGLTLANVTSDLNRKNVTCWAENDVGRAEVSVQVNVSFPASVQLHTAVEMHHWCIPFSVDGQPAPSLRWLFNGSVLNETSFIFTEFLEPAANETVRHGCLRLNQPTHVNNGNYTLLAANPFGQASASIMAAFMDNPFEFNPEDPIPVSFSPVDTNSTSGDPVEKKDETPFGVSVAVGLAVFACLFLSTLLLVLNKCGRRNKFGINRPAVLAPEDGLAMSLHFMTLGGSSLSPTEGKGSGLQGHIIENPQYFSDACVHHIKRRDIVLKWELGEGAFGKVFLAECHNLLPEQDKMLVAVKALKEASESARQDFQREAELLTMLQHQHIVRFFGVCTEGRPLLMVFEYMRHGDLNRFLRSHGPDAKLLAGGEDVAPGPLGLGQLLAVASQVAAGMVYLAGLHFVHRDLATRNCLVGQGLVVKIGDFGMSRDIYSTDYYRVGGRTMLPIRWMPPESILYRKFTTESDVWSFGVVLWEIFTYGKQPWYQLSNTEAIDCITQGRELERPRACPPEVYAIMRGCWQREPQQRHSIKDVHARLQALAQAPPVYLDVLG
Sequence of Protein kinase C theta type (Q04759 whole entry): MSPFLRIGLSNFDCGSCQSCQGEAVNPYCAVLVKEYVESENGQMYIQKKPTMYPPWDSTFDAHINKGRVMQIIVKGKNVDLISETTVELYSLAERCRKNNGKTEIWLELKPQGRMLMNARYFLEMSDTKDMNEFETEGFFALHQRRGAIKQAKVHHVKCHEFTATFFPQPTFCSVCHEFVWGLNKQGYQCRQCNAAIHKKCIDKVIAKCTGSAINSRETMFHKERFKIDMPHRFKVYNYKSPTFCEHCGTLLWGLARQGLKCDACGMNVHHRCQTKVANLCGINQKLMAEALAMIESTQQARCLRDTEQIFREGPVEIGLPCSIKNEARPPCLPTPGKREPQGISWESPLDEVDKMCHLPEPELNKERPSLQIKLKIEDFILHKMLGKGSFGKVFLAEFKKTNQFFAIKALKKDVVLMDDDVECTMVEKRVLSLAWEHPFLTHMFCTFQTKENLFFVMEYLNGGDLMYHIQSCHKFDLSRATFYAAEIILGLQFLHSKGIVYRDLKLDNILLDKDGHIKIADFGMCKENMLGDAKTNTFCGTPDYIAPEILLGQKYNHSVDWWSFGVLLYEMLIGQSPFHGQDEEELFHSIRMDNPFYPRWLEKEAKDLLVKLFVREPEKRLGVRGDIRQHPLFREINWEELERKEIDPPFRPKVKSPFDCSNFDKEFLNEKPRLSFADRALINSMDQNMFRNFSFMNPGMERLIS
Sequence of Protein kinase C beta type (P05771 whole entry): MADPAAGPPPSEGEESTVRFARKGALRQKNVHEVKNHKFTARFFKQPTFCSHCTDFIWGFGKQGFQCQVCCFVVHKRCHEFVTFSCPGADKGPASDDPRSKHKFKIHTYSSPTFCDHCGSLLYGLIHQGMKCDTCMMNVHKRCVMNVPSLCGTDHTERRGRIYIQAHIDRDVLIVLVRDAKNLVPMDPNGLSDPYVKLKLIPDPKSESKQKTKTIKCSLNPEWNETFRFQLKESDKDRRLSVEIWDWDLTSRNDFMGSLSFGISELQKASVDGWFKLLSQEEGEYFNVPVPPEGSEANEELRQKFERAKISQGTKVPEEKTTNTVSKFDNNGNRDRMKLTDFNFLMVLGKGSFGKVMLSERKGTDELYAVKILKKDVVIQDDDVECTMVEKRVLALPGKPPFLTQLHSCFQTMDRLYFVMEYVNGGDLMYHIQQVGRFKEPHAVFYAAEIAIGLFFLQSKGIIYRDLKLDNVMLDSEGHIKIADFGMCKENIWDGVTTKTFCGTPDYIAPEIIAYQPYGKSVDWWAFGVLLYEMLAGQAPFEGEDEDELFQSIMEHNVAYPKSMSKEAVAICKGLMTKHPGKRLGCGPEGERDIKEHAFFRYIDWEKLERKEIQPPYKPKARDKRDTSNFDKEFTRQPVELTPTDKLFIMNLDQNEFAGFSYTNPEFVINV
Sequence of DNA topoisomerase 2-alpha (P11388 whole entry): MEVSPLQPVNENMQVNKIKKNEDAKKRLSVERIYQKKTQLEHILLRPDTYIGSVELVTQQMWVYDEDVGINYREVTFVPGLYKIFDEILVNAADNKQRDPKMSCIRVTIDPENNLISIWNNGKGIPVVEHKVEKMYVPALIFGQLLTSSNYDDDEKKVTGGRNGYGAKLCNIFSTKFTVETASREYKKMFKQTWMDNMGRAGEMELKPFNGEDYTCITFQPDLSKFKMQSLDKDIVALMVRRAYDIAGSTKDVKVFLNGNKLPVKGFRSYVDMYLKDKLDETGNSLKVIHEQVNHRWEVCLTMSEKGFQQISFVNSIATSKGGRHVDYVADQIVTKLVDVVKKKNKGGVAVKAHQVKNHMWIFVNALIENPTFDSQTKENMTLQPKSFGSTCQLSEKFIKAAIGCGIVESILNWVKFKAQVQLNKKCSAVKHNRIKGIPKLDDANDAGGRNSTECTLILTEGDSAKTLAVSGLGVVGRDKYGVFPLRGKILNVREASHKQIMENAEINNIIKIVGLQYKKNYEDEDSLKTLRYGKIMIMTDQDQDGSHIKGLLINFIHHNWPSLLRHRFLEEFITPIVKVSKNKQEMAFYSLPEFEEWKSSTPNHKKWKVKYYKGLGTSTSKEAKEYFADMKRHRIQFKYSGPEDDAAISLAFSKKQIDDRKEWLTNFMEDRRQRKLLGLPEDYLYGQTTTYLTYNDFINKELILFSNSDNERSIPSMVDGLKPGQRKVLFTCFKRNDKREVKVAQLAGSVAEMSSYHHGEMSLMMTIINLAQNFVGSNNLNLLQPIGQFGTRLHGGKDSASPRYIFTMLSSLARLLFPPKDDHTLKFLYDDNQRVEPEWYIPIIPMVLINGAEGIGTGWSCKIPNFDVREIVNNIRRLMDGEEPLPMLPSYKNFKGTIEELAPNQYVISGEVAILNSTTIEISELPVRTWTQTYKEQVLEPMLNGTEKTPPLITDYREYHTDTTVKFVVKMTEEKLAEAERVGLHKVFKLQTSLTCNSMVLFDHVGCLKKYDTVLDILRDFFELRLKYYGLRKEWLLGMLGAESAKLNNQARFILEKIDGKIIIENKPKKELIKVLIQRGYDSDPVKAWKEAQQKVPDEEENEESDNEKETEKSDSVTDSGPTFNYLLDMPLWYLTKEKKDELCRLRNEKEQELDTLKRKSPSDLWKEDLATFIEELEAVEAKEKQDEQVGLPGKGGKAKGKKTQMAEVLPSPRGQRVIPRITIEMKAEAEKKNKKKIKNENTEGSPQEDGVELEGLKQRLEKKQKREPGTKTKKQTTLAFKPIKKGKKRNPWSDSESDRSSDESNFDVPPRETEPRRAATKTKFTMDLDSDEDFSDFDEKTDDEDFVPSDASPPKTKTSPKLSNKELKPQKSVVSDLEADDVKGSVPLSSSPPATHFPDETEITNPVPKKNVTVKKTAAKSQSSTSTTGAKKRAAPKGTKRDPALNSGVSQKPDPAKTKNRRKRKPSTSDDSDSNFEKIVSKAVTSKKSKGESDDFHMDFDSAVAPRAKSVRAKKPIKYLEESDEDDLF

CO[C@H]1C[C@@H]2CC[C@@H](C)[C@@](O)(O2)C(=O)C(=O)N2CCCC[C@H]2C(=O)O[C@H]([C@H](C)C[C@@H]2CC[C@@H](OC(=O)C(C)(CO)CO)[C@H](OC)C2)CC(=O)[C@H](C)/C=C(\C)[C@@H](O)[C@@H](OC)C(=O)[C@H](C)C[C@H](C)/C=C/C=C/C=C/1C [TEMSIROLIMUS]
inactive: [1] > 30 µM | [2] > 30 µM | [3] > 30 µM | [4] > 30 µM | [5] > 30 µM | [6] > 30 µM | [7] > 30 µM | [8] > 30 µM | [9] > 30 µM

Cn1cnc2c(F)c(Nc3ccc(Br)cc3F)c(C(=O)NOCCO)cc21 [BINIMETINIB]
inactive: [1] > 30 µM | [2] > 30 µM | [3] > 30 µM | [4] > 30 µM | [5] > 30 µM | [6] > 30 µM | [7] > 30 µM | [8] > 30 µM | [9] > 30 µM

CCOc1cc2ncc(C#N)c(Nc3ccc(F)c(Cl)c3)c2cc1NC(=O)/C=C/CN(C)C [PELITINIB]
inactive: [1] > 30 µM | [2] > 30 µM | [3] > 30 µM | [4] > 30 µM | [5] > 30 µM | [6] > 30 µM | [7] > 30 µM | [8] > 30 µM | [9] > 30 µM

O=c1[nH]ccc2cc(OC3CCNCC3)ccc12 [SAR-407899 FREE BASE]
inactive: [1] > 30 µM | [2] > 30 µM | [3] > 30 µM | [4] > 30 µM | [5] > 30 µM | [6] > 30 µM | [7] > 30 µM | [8] > 30 µM | [9] > 30 µM

CNC(=O)c1cccc2cc(Oc3ccnc4cc(OCC5(N)CC5)c(OC)cc34)ccc12 [LUCITANIB]
inactive: [1] > 30 µM | [2] > 30 µM | [3] > 30 µM | [4] > 30 µM | [5] > 30 µM | [6] > 30 µM | [7] > 30 µM | [8] > 30 µM | [9] > 30 µM

C[C@@H](NC(=O)c1ncnc(N)c1Cl)c1ncc(C(=O)Nc2cc(C(F)(F)F)c(Cl)cn2)s1 [TOVORAFENIB]
inactive: [1] > 30 µM | [2] > 30 µM | [3] > 30 µM | [4] > 30 µM | [5] > 30 µM | [6] > 30 µM | [7] > 30 µM | [8] > 30 µM | [9] > 30 µM

FC(F)(F)c1ccc(/C=C/c2nc(COc3ccc(CCCCn4ccnn4)cc3)co2)cc1 [MUBRITINIB]
inactive: [1] > 30 µM | [2] > 30 µM | [3] > 30 µM | [4] > 30 µM | [5] > 30 µM | [6] > 30 µM | [7] > 30 µM | [8] > 30 µM | [9] > 30 µM
